# Reference: the supplement of paper PMC11061612
# Experiments:
# Experiment in all cases: combination Emax (second highest fraction inhibited in the dose matrix, 72 h); higher = more inhibition; extreme values may be limits of the assay
# [1] = tested on: SU8686 (Pancreatic Carcinoma)
# How it was run: (§1)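 Cell lines in DMEM/F12 or RPMI with 10% FBS were plated in 1536-well plates, held 24 hours at 37°C, 5% CO2, then given two-drug dose matrices for 72 hours (DMSO typically 0.2%). Viability was read by CellTiter-Glo 2.0 luminescence and scaled as inhibition from 0 (vehicle wells) to 1 (blank wells). Combination Emax is the second-highest inhibition in the matrix; Bliss excess is observed combination effect minus expected EA + EB − EA·EB, EA and EB being single-agent effects.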
# [2] = tested on: SCC-15 (Oral Cavity Carcinoma)
# How it was run: as §1
# [3] = tested on: NCI-H358 (Lung Adenocarcinoma)
# How it was run: as §1
# [4] = tested on: Ca9-22 (Head and Neck Carcinoma)
# How it was run: as §1
# [5] = tested on: HOP-62 (Lung Adenocarcinoma)
# How it was run: as §1
# [6] = tested on: TE-1 (Esophageal Squamous Cell Carcinoma)
# How it was run: as §1
# [7] = tested on: LU-65 (Non-Small Cell Lung Carcinoma)
# How it was run: as §1
# [8] = tested on: OE19 (Esophageal Adenocarcinoma)
# How it was run: as §1
# TK10 (Kidney Carcinoma) = tested on: TK10 (Kidney Carcinoma)
# How it was run: as §1
# [9] = tested on: NEC8 (Other Solid Carcinomas)
# How it was run: as §1
# TGW (Neuroblastoma) = tested on: TGW (Neuroblastoma)
# How it was run: as §1
# [10] = tested on: SW13 (Other Solid Carcinomas)
# How it was run: as §1
# [11] = tested on: C-4-I (Cervical Carcinoma)
# How it was run: as §1
# ACHN (Kidney Carcinoma) = tested on: ACHN (Kidney Carcinoma)
# How it was run: as §1
# [12] = tested on: Hs-766T (Pancreatic Carcinoma)
# How it was run: as §1
# [13] = tested on: EFM-19 (Breast Carcinoma)
# How it was run: as §1
# [14] = tested on: HSC-4 (Oral Cavity Carcinoma)
# How it was run: as §1
# [15] = tested on: OSC-20 (Oral Cavity Carcinoma)
# How it was run: as §1
# [16] = tested on: KYSE-450 (Esophageal Squamous Cell Carcinoma)
# How it was run: as §1
# EW-24 (Ewing's Sarcoma) = tested on: EW-24 (Ewing's Sarcoma)
# How it was run: as §1
SMILES,combination Emax [1],combination Emax [2],combination Emax [3],combination Emax [4],combination Emax [5],combination Emax [6],combination Emax [7],combination Emax [8],combination Emax (TK10 (Kidney Carcinoma)),combination Emax [9],combination Emax (TGW (Neuroblastoma)),combination Emax [10],combination Emax [11],combination Emax (ACHN (Kidney Carcinoma)),combination Emax [12],combination Emax [13],combination Emax [14],combination Emax [15],combination Emax [16],combination Emax (EW-24 (Ewing's Sarcoma))
"NC1(C(=O)N[C@@H](CCO)c2ccc(Cl)cc2)CCN(c2ncnc3[nH]ccc23)CC1 [Capivasertib] + Cn1cnc2c(F)c(Nc3ccc(Br)cc3Cl)c(C(=O)NOCCO)cc21 [Selumetinib] (first compound max 10 µM, 7x7, partner max 10 µM)",0.26,0.524,0.585,0.554,0.644,0.49,0.729,0.573,0.534,0.152,0.262,0.65,0.537,0.49,0.591,0.477,0.609,0.451,0.547,0.485
"CC(=O)c1c(C)c2cnc(Nc3ccc(N4CCNCC4)cn3)nc2n(C2CCCC2)c1=O [Palbociclib] + CC1(C)CCC(CN2CCN(c3ccc(C(=O)NS(=O)(=O)c4ccc(NCC5CCOCC5)c([N+](=O)[O-])c4)c(Oc4cnc5[nH]ccc5c4)c3)CC2)=C(c2ccc(Cl)cc2)C1 [Venetoclax] (first compound max 10 µM, 7x7, partner max 1 µM)",0.0346,0.0783,0.337,0.2,0.251,0.179,0.117,0.257,0.3,0.0159,0.226,0.24,0.0751,0.597,0.149,0.0695,0.121,0.0423,0.126,0.432
"COc1cccc(OCCCN)c1-c1cc(Nc2cnc(C#N)cn2)n[nH]1 [Prexasertib] + CN(C)CCCOc1ccc(-c2ccc3ncc4c(c3c2)n(C2CCOCC2)c(=O)n4C)cn1 [AZD0156] (first compound max 1 µM, 7x7, partner max 1 µM)",0.525,0.617,0.775,1,0.632,0.71,0.761,0.889,0.727,0.986,0.964,0.322,0.915,0.926,0.665,0.28,0.604,0.584,0.615,0.68
"Cn1cnc2c(F)c(Nc3ccc(Br)cc3Cl)c(C(=O)NOCCO)cc21 [Selumetinib] + CCN(CCO)CCCOc1ccc2c(Nc3cc(CC(=O)Nc4cccc(F)c4)[nH]n3)ncnc2c1 [AZD2811] (first compound max 10 µM, 7x7, partner max 1 µM)",0.142,0.36,0.499,0.475,0.475,0.49,0.635,0.796,0.327,0.0754,0.0777,0.615,0.66,0.366,0.515,0.219,0.345,0.343,0.209,0.427
"NC1(C(=O)N[C@@H](CCO)c2ccc(Cl)cc2)CCN(c2ncnc3[nH]ccc23)CC1 [Capivasertib] + CC(C)n1c(=O)n(C)c2cnc3cc(F)c(-c4ccc(OCCCN5CCCCC5)nc4)cc3c21 [AZD1390] (first compound max 10 µM, 7x7, partner max 0.3 µM)",0.113,0.227,0.374,0.286,0.374,0.153,0.401,0.346,0.411,0.144,0.172,0.35,0.237,0.185,0.209,0.469,0.337,0.256,0.306,0.407
"COc1nnc2ccc(N3CCC(c4ccc(OCCN5CCN(C)C(=O)[C@H]5C)cc4)CC3)nn12 [AZD5153] + CCN(CCO)CCCOc1ccc2c(Nc3cc(CC(=O)Nc4cccc(F)c4)[nH]n3)ncnc2c1 [AZD2811] (first compound max 1 µM, 7x7, partner max 1 µM)",0.0898,0.41,0.352,0.592,0.631,0.49,0.494,0.693,0.564,0.826,0.501,0.455,0.565,0.562,0.416,0.366,0.292,0.261,0.358,0.616
"Cn1cnc2c(F)c(Nc3ccc(Br)cc3Cl)c(C(=O)NOCCO)cc21 [Selumetinib] + CC(C)n1c(=O)n(C)c2cnc3cc(F)c(-c4ccc(OCCCN5CCCCC5)nc4)cc3c21 [AZD1390] (first compound max 10 µM, 7x7, partner max 0.3 µM)",0.163,0.176,0.444,0.44,0.409,0.384,0.598,0.128,0.325,0.0259,0.0418,0.401,0.26,0.305,0.475,0.235,0.132,0.12,0.0763,0.132
"Cc1c2c(nn1C)CSCc1cc(n(C)n1)CSc1cc(c3ccccc3c1)OCCCc1c(C(=O)O)n(C)c3c-2c(Cl)ccc13 [AZD5991] + CN(C)CCCOc1ccc(-c2ccc3ncc4c(c3c2)n(C2CCOCC2)c(=O)n4C)cn1 [AZD0156] (first compound max 1 µM, 7x7, partner max 1 µM)",0.16,0.269,0.308,0.256,0.473,0.635,0.366,0.573,0.272,0.291,0.293,0.828,1,0.179,0.372,0.494,0.197,0.256,0.251,0.291
"COc1cccc(OCCCN)c1-c1cc(Nc2cnc(C#N)cn2)n[nH]1 [Prexasertib] + Cc1cc2ncnn2cc1Nc1ncc2c(n1)n(C1CCOCC1)c(=O)n2C [AZD7648] (first compound max 1 µM, 7x7, partner max 10 µM)",0.528,0.549,0.769,1,0.582,0.694,0.822,0.897,0.738,0.995,0.947,0.492,0.956,0.935,0.709,0.349,0.588,0.599,0.584,0.649
"Cc1c2c(nn1C)CSCc1cc(n(C)n1)CSc1cc(c3ccccc3c1)OCCCc1c(C(=O)O)n(C)c3c-2c(Cl)ccc13 [AZD5991] + CC1(C)CCC(CN2CCN(c3ccc(C(=O)NS(=O)(=O)c4ccc(NCC5CCOCC5)c([N+](=O)[O-])c4)c(Oc4cnc5[nH]ccc5c4)c3)CC2)=C(c2ccc(Cl)cc2)C1 [Venetoclax] (first compound max 1 µM, 7x7, partner max 1 µM)",0.0608,0.236,0.217,0.725,0.0765,0.65,0.393,0.457,0.208,0.793,0.857,0.927,0.976,0.192,0.184,0.624,0.142,0.145,0.189,0.38
"Cn1cnc2c(F)c(Nc3ccc(Br)cc3Cl)c(C(=O)NOCCO)cc21 [Selumetinib] + C=CCn1c(=O)c2cnc(Nc3ccc(N4CCN(C)CC4)cc3)nc2n1-c1cccc(C(C)(C)O)n1 [AZD1775] (first compound max 10 µM, partner max 1 µM)",0.126,0.3,0.621,0.55,0.487,0.638,0.908,0.28,0.478,0.628,0.566,0.361,0.929,0.863,0.487,0.321,0.427,0.27,0.499,0.334
"CC1(C)CCC(CN2CCN(c3ccc(C(=O)NS(=O)(=O)c4ccc(NCC5CCOCC5)c([N+](=O)[O-])c4)c(Oc4cnc5[nH]ccc5c4)c3)CC2)=C(c2ccc(Cl)cc2)C1 [Venetoclax] + Cn1cnc2c(F)c(Nc3ccc(Br)cc3Cl)c(C(=O)NOCCO)cc21 [Selumetinib] (first compound max 1 µM, 7x7, partner max 3 µM)",0.135,0.264,0.343,0.222,0.435,0.245,0.538,0.182,0.322,0.104,0.337,0.317,0.385,0.688,0.502,0.232,0.243,0.172,0.109,0.154
"CC1(C)CCC(CN2CCN(c3ccc(C(=O)NS(=O)(=O)c4ccc(NCC5CCOCC5)c([N+](=O)[O-])c4)c(Oc4cnc5[nH]ccc5c4)c3)CC2)=C(c2ccc(Cl)cc2)C1 [Venetoclax] + CCN(CCO)CCCOc1ccc2c(Nc3cc(CC(=O)Nc4cccc(F)c4)[nH]n3)ncnc2c1 [AZD2811] (first compound max 1 µM, 7x7, partner max 1 µM)",0.158,0.295,0.276,0.236,0.342,0.298,0.249,0.779,0.16,0.205,0.568,0.402,0.269,0.739,0.291,0.541,0.203,0.336,0.27,0.457
